The results in this text go back to patent US20260232578A1, “COMPOSITIONS AND METHODS FOR TRANSMUCOSAL ABSORPTION” (Tonix Pharma Limited, priority 2012, published 2026).

Series [1] is described as follows: in vivo. Conditions: female, beagle, dog; for AUC(0-t) / AUC(0-inf): 1.79 mg; for AUC(0-t): AUC0-24 h; for AUC(0-inf): AUC0-∞h. On the procedure:
The protocol was designed as outlined in Table 23.
The method requires a lithium heparinized plasma sample volume of 200 μl. The extraction is a liquid liquid extraction with hexane, and the extracts are injected using an HPLC system and an […] (Applied Biosystems) for the MS/MS detection, with a “Onyx monolithic Phenomenex C18 100×3.0 mm” column.
Concentrations of the samples are calculated using Watson® 7.2.0.03 directly from chromatograms after automatic integration by Analyst® 1.5.1 and expressed as ng/mL. Mean plasma concentrations will be calculated (when calculable, i.e. n>2) using individual concentrations and will be expressed with the corresponding standard deviation value and variation coefficients (when calculable, i.e. n>3) (with CV(%)=(SD/mean)×100). The individual plasma concentrations are tabulated for each dog and scheduled sampling time. Concentrations below the LLOQ are designated as “BLQ.” All BLQ concentrations are substituted by zero for calculation of the descriptive statistics of the concentrations.
Pharmacokinetic analysis is carried out using […]® (Version 4.3 (Thermo Electron Corporation)). An independent model (non compartmental analysis) is used. All BLQ values in the absorption phase are substituted by zero, except for BLQ values between evaluable concentrations, which are treated as missing values, before the calculation of the pharmacokinetic variables. The terminal BLQ values are ignored. The following pharmacokinetic parameters are calculated:
5 non-naive female dogs are used, each dog receiving the test substance by oral administration via nasogastric tube to the stomach (NG) administration, sublingual administration (SL), and by intravenous (IV) administration. There is a “wash-out” period of at least two weeks between each type of administration. Blood samples are drawn as follows:
A single NG dose of 0.14 mg/kg (under a volume of 5 ml/kg and a solution concentration of 0.028 mg/mL) is administered.
After a wash-out period of at least 2 weeks, dogs are sedated using propofol (6.5 mg/kg IV). They will be then given a single sublingual dose of 0.14 mg/kg (under a volume of 0.056 mL/kg and a solution concentration of 2.5 mg/mL).
After a wash-out period of at least 2 weeks, dogs are given a single IV dose of 0.14 mg/kg (under a volume of 1 mL/kg, bolus of approximately 30 sec, and a solution concentration of 0.14 mg/mL).
Blood sampling was designed to minimize animal suffering and to ensure the quality of the biological samples, and was adapted from basic procedures commonly used in studies performed in dogs. Serial blood samples (1 tube of approximately 5 mL) are collected from a jugular vein using vacuum tubes containing lithium heparin. After sealing each tube, the blood samples are manually agitated and stored on ice until centrifugation (within 30 minutes of sampling). The samples are centrifuged at 1500 g, at 4° C., for 10 minutes. The entire resultant plasma obtained from each tube is immediately transferred to suitably labeled polypropylene tubes (3 aliquots of plasma of at least 500 μl each), which are stored upright at approximately −80° C. and protected from light until bioanalysis.
The dogs are fasted overnight before each administration, and food is given to the dogs 4 hours after each treatment. […] In each of the three routes, a potassium phosphate buffer (pH 7.4) is used as the vehicle.
As referred to in Example 4, a study was designed in order to assess the effects of the compositions and methods of the invention. […] The pharmacokinetic parameters were then calculated. A summary of the study design is as follows:
Blood was collected in a fasted condition for all three routes of administration. […] Briefly, the method involved liquid-liquid extraction with hexane. The extracts were injected using an HPLC system and an API4000® (Applied Biosystems) for the MS/MS detection, with an “Onyx monolithic Phenomenex C18 100×3.0 mm” column.

The conditions of series [2]: Beagle; for plasma level adjusted to 0.14 mg/kg: Hucker IV. The protocol:
Doses were expressed as free base, and so should be adjusted by MW Free Base 275 g/mole/MW HCl salt 312 g/mole. […] In our Beagle studies, the dose was 0.14 mg/kg, which is approximately 1/12.6 the dose of the Hucker studies.

Each structure is given as a SMILES string. Like-named read-outs stand apart in the source and are kept apart here.

As for `CN(C)CCC=C1c2ccccc2C=Cc2ccccc21` [cyclobenzaprine, 3-(5H-dibenzo[a,d]cyclohepten-5-ylidene)-N,N-dimethyl-1-propanamine], the “increase in bioavailability, sublingual vs PO” value in series [1] is recorded as about 77 fold. Moreover, the values for the AUC(0-t) in series [1] and in series [1] (iv) were 127 ± 37.1 ng·h/mL and 43.5 ± 3.77 ng·h/mL, respectively. The AUC(0-inf) in series [1] was found to be 129 ± 36.4 ng·h/mL; in series [1] (iv) it was 44.9 ± 4.15 ng·h/mL. The same molecule displayed a bioavailability in series [1] (bioavailability, conclusion) of about 100%. Moreover, the concentration at 0.5 h in series [1] (iv, 0.14 mg/kg, plasma level) came out at 52.3 ng/mL. The concentration at 6 h in series [1] (iv, 0.14 mg/kg, plasma level) stood at 3.4 ng/mL. In addition, the “plasma level adjusted to 0.14 mg/kg” value in series [2] (0.5 h) was 34.1 ng/mL; in series [2] (2 hours), 47.6 ng/mL; in series [2] (6 h), 35.7 ng/mL. Further, the “peak plasma level adjusted to 0.14 mg/kg” value in series [2] (Hucker PO gelatin capsule, at 2 hours) came to 115.9 ng/mL.
